Measured values as given in the NIST ThermoML archive (doi:10.1021/je050464i).
Values joined by “and” are separate entries in the source; they are usually repeats but may differ in a detail not shown here. Equal entries are not always repeated. Numbers after ± are expanded uncertainties.

Conditions: Crystal, Calculated from knudsen effusion weight loss

## [Pd] [palladium]
1473 K
  vapor or sublimation pressure: 1e-05 kPa
1498 K
  vapor or sublimation pressure: 2e-05 ± 2e-05 kPa
1523 K
  vapor or sublimation pressure: 3e-05 ± 2e-05 kPa
1548 K
  vapor or sublimation pressure: 6e-05 ± 4e-05 kPa
1573 K
  vapor or sublimation pressure: 9e-05 ± 3e-05 kPa
1576 K
  vapor or sublimation pressure: 9e-05 ± 0.00016 kPa
1598 K
  vapor or sublimation pressure: 0.000141 ± 3e-05 kPa
1600 K
  vapor or sublimation pressure: 0.00011 ± 3e-05 kPa
1626 K
  vapor or sublimation pressure: 0.0002 ± 0.00014 kPa
1648 K
  vapor or sublimation pressure: 0.00028 ± 9e-05 kPa
1650 K
  vapor or sublimation pressure: 0.00026 ± 0.00019 kPa
1660 K
  vapor or sublimation pressure: 0.0005 ± 0.0002 kPa
1673 K
  vapor or sublimation pressure: 0.0004 ± 0.00019 kPa and 0.0004 ± 0.0002 kPa and 0.0004 ± 8e-05 kPa
1676 K
  vapor or sublimation pressure: 0.00044 ± 0.00018 kPa
1685 K
  vapor or sublimation pressure: 0.00067 ± 0.00019 kPa
1698 K
  vapor or sublimation pressure: 0.0005 ± 0.0006 kPa and 0.00076 ± 0.00012 kPa and 0.00058 ± 5e-05 kPa
1700 K
  vapor or sublimation pressure: 0.00061 ± 0.00014 kPa
1706 K
  vapor or sublimation pressure: 0.0009 ± 0.0002 kPa
1723 K
  vapor or sublimation pressure: 0.00108 ± 0.0002 kPa [middle of 4 runs]
1726 K
  vapor or sublimation pressure: 0.00094 ± 0.00018 kPa
1740 K
  vapor or sublimation pressure: 0.0012 ± 0.0003 kPa
1748 K
  vapor or sublimation pressure: 0.0016 ± 0.0005 kPa and 0.0016 ± 0.0003 kPa and 0.0012 ± 0.00026 kPa
1750 K
  vapor or sublimation pressure: 0.00131 ± 0.0003 kPa
1773 K
  vapor or sublimation pressure: 0.002 ± 0.0005 kPa and 0.0022 ± 0.0005 kPa
1776 K
  vapor or sublimation pressure: 0.002 ± 0.0003 kPa
1798 K
  vapor or sublimation pressure: 0.0024 ± 0.0009 kPa and 0.0029 ± 0.0006 kPa
1800 K
  vapor or sublimation pressure: 0.0027 ± 0.0005 kPa
1802 K
  vapor or sublimation pressure: 0.0024 ± 0.0009 kPa
1806 K
  vapor or sublimation pressure: 0.002 ± 0.002 kPa
1823 K
  vapor or sublimation pressure: 0.004 ± 0.0011 kPa
1825 K
  vapor or sublimation pressure: 0.0037 ± 0.0009 kPa
1840 K
  vapor or sublimation pressure: 0.0047 ± 0.0011 kPa
1848 K
  vapor or sublimation pressure: 0.0048 ± 0.0011 kPa
1850 K
  vapor or sublimation pressure: 0.0053 ± 0.0011 kPa
1860 K
  vapor or sublimation pressure: 0.0061 ± 0.0017 kPa
1873 K
  vapor or sublimation pressure: 0.008 ± 0.008 kPa and 0.0076 ± 0.0017 kPa
1883 K
  vapor or sublimation pressure: 0.0066 ± 0.0018 kPa
1885 K
  vapor or sublimation pressure: 0.0082 ± 0.0017 kPa
1898 K
  vapor or sublimation pressure: 0.01 ± 0.014 kPa and 0.0094 ± 0.002 kPa
1900 K
  vapor or sublimation pressure: 0.0098 ± 0.0016 kPa
1910 K
  vapor or sublimation pressure: 0.0109 ± 0.0023 kPa
1912 K
  vapor or sublimation pressure: 0.0111 ± 0.002 kPa
1923 K
  vapor or sublimation pressure: 0.013 ± 0.006 kPa and 0.014 ± 0.003 kPa
1925 K
  vapor or sublimation pressure: 0.0125 ± 0.0021 kPa
1940 K
  vapor or sublimation pressure: 0.015 ± 0.004 kPa
1942 K
  vapor or sublimation pressure: 0.0157 ± 0.0035 kPa
1948 K
  vapor or sublimation pressure: 0.018 ± 0.01 kPa and 0.017 ± 0.003 kPa and 0.021 ± 0.005 kPa
1950 K
  vapor or sublimation pressure: 0.0174 ± 0.0031 kPa and 0.0166 ± 0.003 kPa
1954 K
  vapor or sublimation pressure: 0.021 ± 0.005 kPa
1963 K
  vapor or sublimation pressure: 0.02 ± 0.004 kPa and 0.0201 ± 0.0034 kPa
1965 K
  vapor or sublimation pressure: 0.0203 ± 0.0028 kPa and 0.0204 ± 0.0028 kPa
1970 K
  vapor or sublimation pressure: 0.024 ± 0.018 kPa
1972 K
  vapor or sublimation pressure: 0.022 ± 0.005 kPa
1973 K
  vapor or sublimation pressure: 0.022 ± 0.005 kPa and 0.024 ± 0.007 kPa and 0.02 ± 0.003 kPa
